Reference: US8895733B2 (Novartis AG, priority 2010, dated 2014)
Where two headings read alike, the source gives them in different places.

Target: T1, Nav 1.7 (Homo sapiens, UniProt Q15858)
T1 construct: expressed in transfected cells
Experiment: Whole-cell voltage clamp electrophysiology, automated patch clamp (marker c in Table of Examples)
Format: cell-based
Settings: read-out: Nav 1.7 activity
Excerpt: a.IonWork Quattro data, b=Manual patch clamp data, c=Automated patch clamp data M=Method
Whole-Cell Voltage Clamp Electrophysiology Assay
Patch-clamp electrophysiology is considered the gold standard technique for investigation of ion channel function and pharmacology. Using this method, sodium channel currents can be measured in cells, which stably (or transiently) express the sodium channel subtype of interest. Application of compounds during such experiments provides a functional measure of the activity and potency of compounds affecting the ion channel of interest.
Electrophysiological studies can be performed using automated or manual patch-clamp techniques. Automated patch-clamp instruments suitable for this work include the Ion Works HT (MDS), Ion Works Quattro (MDS), PatchLiner (Nanion technologies), Port-A-Patch (Nanion technologies), QPatch (Sophion) or any other suitable platform.
For recording in automated patch-clamp instruments, cells expressing the voltage-gated sodium channel subtype of interest are dispensed in appropriate chips (plates with more than one recording chambers each containing one or more apertures to generate whole-cell patches), as provided by the manufacturer. Typically, the whole-cell perforated patch configuration is used for probing the pharmacology of compounds in automated patch-clamp electrophysiology on sodium channels. Extracellular and intracellular buffers for such experiments are composed according to the literature, or according to the instructions provided by the manufacturer of the instruments. Test solutions, which contain the compounds to be tested, are applied to the cells expressing the sodium channel of interest by a pipetting system, typically integrated into the robots.
A suitable voltage stimulus protocol is used to activate voltage-gated sodium channel proteins of interest. A typical stimulus protocol may consist of sweeps of sequential voltage pulses starting from a holding potential (i.e. −65 mV), to a more positive and depolarising test pulse potential (i.e. −10 mV) and finally to a more negative and hyperpolarising potential (i.e. −100 mV). According to the biophysics of the voltage-gated ion channel of interest and interest in channel configuration the voltages and durations of the pulses as well as the overall frequency of sweeps applied might vary. Accordingly, a stimulus protocol was designed to assess compounds due to their potential to block NaV1.7 channels primarily in inactivated state. Selectivity over other voltage-gated sodium channel members was assessed by protocols that reflect the native function of the channels (i.e. heart rate or firing of neurons).

[1] = marker c: Automated patch clamp data

T1 sequence (Q15858 whole entry): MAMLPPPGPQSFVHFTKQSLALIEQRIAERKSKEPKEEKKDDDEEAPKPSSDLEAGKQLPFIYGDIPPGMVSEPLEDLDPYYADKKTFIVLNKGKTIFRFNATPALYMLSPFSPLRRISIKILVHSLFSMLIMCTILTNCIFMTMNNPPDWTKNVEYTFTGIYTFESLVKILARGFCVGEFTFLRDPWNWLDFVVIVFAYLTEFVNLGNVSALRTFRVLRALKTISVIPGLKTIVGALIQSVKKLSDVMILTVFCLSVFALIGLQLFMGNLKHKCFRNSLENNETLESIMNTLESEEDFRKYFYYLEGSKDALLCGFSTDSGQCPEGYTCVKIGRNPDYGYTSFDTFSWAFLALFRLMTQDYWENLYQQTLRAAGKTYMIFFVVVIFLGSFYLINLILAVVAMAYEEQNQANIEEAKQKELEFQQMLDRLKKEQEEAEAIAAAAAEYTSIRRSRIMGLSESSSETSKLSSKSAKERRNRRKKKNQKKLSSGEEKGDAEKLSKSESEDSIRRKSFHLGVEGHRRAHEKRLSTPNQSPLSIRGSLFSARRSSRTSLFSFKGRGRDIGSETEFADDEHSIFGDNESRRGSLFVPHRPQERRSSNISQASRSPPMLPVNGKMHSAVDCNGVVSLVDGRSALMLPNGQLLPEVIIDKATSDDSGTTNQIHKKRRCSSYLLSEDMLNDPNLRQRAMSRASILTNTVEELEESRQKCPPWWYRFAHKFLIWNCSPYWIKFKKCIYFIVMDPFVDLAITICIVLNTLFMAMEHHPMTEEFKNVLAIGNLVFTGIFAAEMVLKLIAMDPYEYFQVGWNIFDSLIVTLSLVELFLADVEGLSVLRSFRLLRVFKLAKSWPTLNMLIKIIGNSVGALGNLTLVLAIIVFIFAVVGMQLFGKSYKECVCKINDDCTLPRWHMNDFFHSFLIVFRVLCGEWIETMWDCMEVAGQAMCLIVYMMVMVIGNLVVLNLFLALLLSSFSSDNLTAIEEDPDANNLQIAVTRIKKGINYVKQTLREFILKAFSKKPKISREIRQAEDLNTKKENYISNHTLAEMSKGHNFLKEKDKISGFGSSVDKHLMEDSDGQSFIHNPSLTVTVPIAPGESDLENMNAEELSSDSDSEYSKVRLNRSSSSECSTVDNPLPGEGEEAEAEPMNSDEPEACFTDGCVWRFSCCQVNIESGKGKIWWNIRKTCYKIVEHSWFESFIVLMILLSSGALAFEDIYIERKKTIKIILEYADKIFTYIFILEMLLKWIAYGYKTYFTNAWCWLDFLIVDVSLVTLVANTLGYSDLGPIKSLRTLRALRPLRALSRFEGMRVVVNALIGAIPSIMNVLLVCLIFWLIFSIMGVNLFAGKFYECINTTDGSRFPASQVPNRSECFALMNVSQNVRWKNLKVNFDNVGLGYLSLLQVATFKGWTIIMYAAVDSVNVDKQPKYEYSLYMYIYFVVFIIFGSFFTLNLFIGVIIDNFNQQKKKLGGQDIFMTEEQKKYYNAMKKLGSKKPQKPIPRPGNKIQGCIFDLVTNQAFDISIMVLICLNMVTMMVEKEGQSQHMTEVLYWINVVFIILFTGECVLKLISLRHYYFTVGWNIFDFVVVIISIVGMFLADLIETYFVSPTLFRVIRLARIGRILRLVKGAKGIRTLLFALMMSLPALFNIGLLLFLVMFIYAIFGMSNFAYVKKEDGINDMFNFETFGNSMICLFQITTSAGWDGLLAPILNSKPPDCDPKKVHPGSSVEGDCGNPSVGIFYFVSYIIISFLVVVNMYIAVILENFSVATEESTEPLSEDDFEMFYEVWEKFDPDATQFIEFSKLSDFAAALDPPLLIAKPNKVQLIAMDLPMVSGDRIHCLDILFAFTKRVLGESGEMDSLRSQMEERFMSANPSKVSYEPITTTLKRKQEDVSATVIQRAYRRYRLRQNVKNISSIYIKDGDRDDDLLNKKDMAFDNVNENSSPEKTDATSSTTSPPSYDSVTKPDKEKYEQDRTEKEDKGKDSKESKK

| IC50 (marker c = Automated patch clamp data) | IC50 [1] | SMILES |
| --- | --- | --- |
| 1390 nM | – | CN(c1ccccc1)c1nc(N)nc(-c2noc(C3CC(Oc4ccccc4)C3)n2)n1 (mixture of isomers) [Example 261, 2-N-Methyl-6-[5-(3-phenoxycyclobutyl)-1,2,4-oxadiazol-3-yl]-2-N-phenyl-1,3,5-triazine-2,4-diamine] |
| – | 4910 nM | CN(c1ccccc1)c1nc(N)nc(-c2noc(-c3ccc[nH]3)n2)n1 [Example 60, N-Methyl-N-phenyl-6-[5-(1H-pyrrol-2-yl)-[1,2,4]oxadiazol-3-yl]-[1,3,5]triazine-2,4-diamine] |
| – | 1100 nM | Cc1ccc(-c2nc(-c3nc(N)nc(N(C)c4ccccc4)n3)no2)s1 [Example 62, N-Methyl-6-[5-(5-methyl-thiophen-2-yl)-[1,2,4]oxadiazol-3-yl]-N-phenyl-[1,3,5]triazine-2,4-diamine] |
| – | 3380 nM | CN(c1ccccc1)c1nc(N)nc(-c2noc(-c3cccc4c3OCC4)n2)n1 [Example 63, 6-[5-(2,3-Dihydro-benzofuran-7-yl)-[1,2,4]oxadiazol-3-yl]-N-methyl-N-phenyl-[1,3,5]triazine-2,4-diamine] |
| – | 1930 nM | CN(c1ccccc1)c1nc(N)nc(-c2noc(-c3cc4ccccc4o3)n2)n1 [Example 64, 6-(5-Benzofuran-2-yl-[1,2,4]oxadiazol-3-yl)-N-methyl-N-phenyl-[1,3,5]triazine-2,4-diamine] |
| – | 5220 nM | CN(c1ccccc1)c1nc(N)nc(-c2noc(-c3ncc[nH]3)n2)n1 [Example 65, 6-(5-Imidazol-2-yl-[1,2,4]oxadiazol-3-yl)-N-methyl-N-phenyl-[1,3,5]triazine-2,4-diamine] |
| – | 1680 nM | CN(c1ccccc1)c1nc(N)nc(-c2noc(C3CCCO3)n2)n1 (stereo not drawn) [Example 66, N-Methyl-N-phenyl-6-[5-(tetrahydro-furan-2-yl)-[1,2,4]oxadiazol-3-yl]-[1,3,5]triazine-2,4-diamine] |
| – | 1370 nM | CN(C)CCN(c1ccccc1)c1nc(N)nc(-c2noc(-c3ccco3)n2)n1 [Example 69, N-(2-Dimethylamino-ethyl)-6-(5-furan-2-yl-[1,2,4]oxadiazol-3-yl)-N-phenyl-[1,3,5]triazine-2,4-diamine] |
| – | 1020 nM | Nc1nc(-c2noc(-c3ccco3)n2)nc(N(CCO)c2ccccc2)n1 [Example 70, 2-{[4-Amino-6-(5-furan-2-yl-[1,2,4]oxadiazol-3-yl)-[1,3,5]triazin-2-yl]-phenyl-amino}-ethanol] |
| – | 1490 nM | CCOC(=O)c1nc(-c2nc(N)nc(N(C)c3ccccc3)n2)no1 [Example 73, 3-[4-Amino-6-(methyl-phenyl-amino)-[1,3,5]triazin-2-yl]-[1,2,4]oxadiazole-5-carboxylic acid ethyl ester] |
| – | 1410 nM | COc1ccsc1-c1nc(-c2nc(N)nc(N(C)c3ccccc3)n2)no1 [Example 74, 6-[5-(3-Methoxy-thiophen-2-yl)-[1,2,4]oxadiazol-3-yl]-N-methyl-N-phenyl-[1,3,5]triazine-2,4-diamine] |
| – | 1190 nM | CNC(=O)c1ccc(-c2nc(-c3nc(N)nc(N(C)c4ccccc4)n3)no2)s1 [Example 75, 5-{3-[4-Amino-6-(methyl-phenyl-amino)-[1,3,5]triazin-2-yl]-[1,2,4]oxadiazol-5-yl}-thiophene-2-carboxylic acid methylamide] |
| – | 925 nM | COc1ncccc1-c1nc(-c2nc(N)nc(N(C)c3ccccc3)n2)no1 [Example 76, 6-[5-(2-Methoxy-pyridin-3-yl)-[1,2,4]oxadiazol-3-yl]-N-methyl-N-phenyl-[1,3,5]triazine-2,4-diamine] |
| – | 246 nM | COc1ccc(-c2nc(-c3nc(N)nc(N(C)c4ccccc4)n3)no2)c(OC)c1 [Example 77, 6-[5-(2,4-Dimethoxy-phenyl)-[1,2,4]oxadiazol-3-yl]-N-methyl-N-phenyl-[1,3,5]triazine-2,4-diamine] |

The remaining lines, values behind:

| SMILES | IC50 (marker c = Automated patch clamp data) | IC50 [1] |
| --- | --- | --- |
| CN(c1ccccc1)c1nc(N)nc(-c2noc(C3C[C@H]4CC[C@@H](C3)N4CCC(F)(F)F)n2)n1 (mixture of isomers) [Example 145, N-Methyl-N-phenyl-6-{5-[(1R,3R,5S)-8-(3,3,3-trifluoro-propyl)-8-aza-bicyclo[3.2.1]oct-3-yl]-[1,2,4]oxadiazol-3-yl}-[1,3,5]triazine-2,4-diamine] | – | 1140 nM |
| Cc1ccccc1-c1nc(-c2nc(N)nc(N(C)c3ccccc3)n2)no1 [Example 27, N-Methyl-N-phenyl-6-(5-o-tolyl-[1,2,4]oxadiazol-3-yl)-[1,3,5]triazine-2,4-diamine] | – | 923 nM |
| Cc1cccc(-c2nc(-c3nc(N)nc(N(C)c4ccccc4)n3)no2)c1 [Example 28, N-Methyl-N-phenyl-6-(5-m-tolyl-[1,2,4]oxadiazol-3-yl)-[1,3,5]triazine-2,4-diamine] | – | 955 nM |
| Cc1ccc(-c2nc(-c3nc(N)nc(N(C)c4ccccc4)n3)no2)cc1 [Example 29, N-Methyl-N-phenyl-6-(5-p-tolyl-[1,2,4]oxadiazol-3-yl)-[1,3,5]triazine-2,4-diamine] | – | 1380 nM |
| CC(C)N(c1ccccc1)c1nc(N)nc(-c2noc(-c3ccco3)n2)n1 [Example 30, 6-(5-Furan-2-yl-[1,2,4]oxadiazol-3-yl)-N-isopropyl-N-phenyl-[1,3,5]triazine-2,4-diamine] | – | 933 nM |
| CN(c1ccccc1)c1nc(N)nc(-c2noc(Cc3ccccc3)n2)n1 [Example 31, 6-(5-Benzyl-[1,2,4]oxadiazol-3-yl)-N-methyl-N-phenyl-[1,3,5]triazine-2,4-diamine] | – | 363 nM |
| Nc1nc(Nc2ccccc2)nc(-c2noc(-c3cc[nH]n3)n2)n1 [Example 40, N-Phenyl-6-[5-(1H-pyrazol-3-yl)-[1,2,4]oxadiazol-3-yl]-[1,3,5]triazine-2,4-diamine] | – | 2720 nM |
| CN(c1ccccc1)c1nc(N)nc(-c2noc(-c3ncccc3OCC(F)(F)F)n2)n1 [Example 42, N-Methyl-N-phenyl-6-{5-[3-(2,2,2-trifluoro-ethoxy)-pyridin-2-yl]-[1,2,4]oxadiazol-3-yl}-[1,3,5]triazine-2,4-diamine] | – | 1410 nM |
| Cc1cc(-c2nc(-c3nc(N)nc(N(C)c4ccccc4)n3)no2)no1 [Example 44, N-Methyl-6-[5-(5-methyl-isoxazol-3-yl)-[1,2,4]oxadiazol-3-yl]-N-phenyl-[1,3,5]triazine-2,4-diamine] | – | 2720 nM |
| CN(c1ccccc1)c1nc(N)nc(-c2noc(N3CCOCC3)n2)n1 [Example 45, N-Methyl-6-(5-morpholin-4-yl-[1,2,4]oxadiazol-3-yl)-N-phenyl-[1,3,5]triazine-2,4-diamine] | – | 3520 nM |
| COc1ccc(-c2nc(-c3nc(N)nc(N(C)c4ccccc4)n3)no2)cn1 [Example 47, 6-[5-(6-Methoxy-pyridin-3-yl)-[1,2,4]oxadiazol-3-yl]-N-methyl-N-phenyl-[1,3,5]triazine-2,4-diamine] | – | 1920 nM |
| Cc1cc(-c2nc(-c3nc(N)nc(N(C)c4ccccc4)n3)no2)oc1C [Example 49, 6-[5-(4,5-Dimethyl-furan-2-yl)-[1,2,4]oxadiazol-3-yl]-N-methyl-N-phenyl-[1,3,5]triazine-2,4-diamine] | – | 1230 nM |
| CN(c1ccccc1)c1nc(N)nc(-c2noc(-c3ncccc3N)n2)n1 [Example 51, 6-[5-(3-Amino-pyridin-2-yl)-[1,2,4]oxadiazol-3-yl]-N-methyl-N-phenyl-[1,3,5]triazine-2,4-diamine] | – | 3470 nM |
| CN(c1ccccc1)c1nc(N)nc(-c2noc(-c3cccnc3N)n2)n1 [Example 53, 6-[5-(2-Amino-pyridin-3-yl)-[1,2,4]oxadiazol-3-yl]-N-methyl-N-phenyl-[1,3,5]triazine-2,4-diamine] | – | 703 nM |
| CN(c1ccccc1)c1nc(N)nc(-c2noc(-c3ccc(N)nc3)n2)n1 [Example 55, 6-[5-(6-Amino-pyridin-3-yl)-[1,2,4]oxadiazol-3-yl]-N-methyl-N-phenyl-[1,3,5]triazine-2,4-diamine] | – | 4910 nM |
| CN(c1ccccc1)c1nc(N)nc(-c2noc(C3CCCCO3)n2)n1 (stereo not drawn) [Example 56, N-Methyl-N-phenyl-6-[5-(tetrahydro-pyran-2-yl)-[1,2,4]oxadiazol-3-yl]-[1,3,5]triazine-2,4-diamine] | – | 4580 nM |
| CN(c1ccccc1)c1nc(N)nc(-c2noc(C3CCOCC3)n2)n1 [Example 57, N-Methyl-N-phenyl-6-[5-(tetrahydro-pyran-4-yl)-[1,2,4]oxadiazol-3-yl]-[1,3,5]triazine-2,4-diamine] | – | 1140 nM |
| Cc1cc(-c2nc(-c3nc(N)nc(N(C)c4ccccc4)n3)no2)n[nH]1 [Example 58, N-Methyl-6-[5-(5-methyl-1H-pyrazol-3-yl)-[1,2,4]oxadiazol-3-yl]-N-phenyl-[1,3,5]triazine-2,4-diamine] | – | 855 nM |
| CN(c1ccccc1)c1nc(N)nc(-c2noc(-c3c[nH]cn3)n2)n1 [Example 59, 6-[5-(1H-Imidazol-4-yl)-[1,2,4]oxadiazol-3-yl]-N-methyl-N-phenyl-[1,3,5]triazine-2,4-diamine] | – | 8120 nM |
